We go through 1 substance from patent US20030215465A1, “Use of conjugated acid derivatives” (priority 2002, published 2003).

This experiment has as its system influenza virus. Put plainly: resistance inducing effect of CLA against viral airway infections in rats exposed intranasally to influenza virus. The format is in vivo. Conditions: rats fed 1% CLA (FFA) for 5 weeks before intranasal influenza exposure; FIG. 1.

With Conjugated Linoleic Acid [CLA], the lungweight result was “increased”.
